# Reference: patent US20130053382A1, “Inhibitors of Phosphoinositide Dependent Kinase 1 (PDK1)” (priority 2010, published 2013)
# Structures can show the parent of a compound that is named as a salt.
# Biological target: T1, recombinant human PDK1 (Homo sapiens, UniProt O15530)
# T1 construct: containing amino acids 51-556 of the human PDK1 enzyme; made in house; host or cells: Sf9 insect cells
# T1 sequence (O15530 51-556): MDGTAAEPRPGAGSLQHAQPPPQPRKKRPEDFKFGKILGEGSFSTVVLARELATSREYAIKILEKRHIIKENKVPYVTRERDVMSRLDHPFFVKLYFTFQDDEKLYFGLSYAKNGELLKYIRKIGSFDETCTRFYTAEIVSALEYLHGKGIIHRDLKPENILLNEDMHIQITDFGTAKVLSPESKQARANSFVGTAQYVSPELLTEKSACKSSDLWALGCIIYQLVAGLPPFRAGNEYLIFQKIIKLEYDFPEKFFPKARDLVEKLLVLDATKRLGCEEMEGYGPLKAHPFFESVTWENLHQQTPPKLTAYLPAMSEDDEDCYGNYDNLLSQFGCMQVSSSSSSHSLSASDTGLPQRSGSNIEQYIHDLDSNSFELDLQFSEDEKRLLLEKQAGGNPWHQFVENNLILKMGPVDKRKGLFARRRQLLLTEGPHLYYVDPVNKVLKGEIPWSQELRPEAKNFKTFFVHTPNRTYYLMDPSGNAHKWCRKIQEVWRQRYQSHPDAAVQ
# Assay: PDK1 IMAP fluorescence polarization kinase assay
# Assay type: biochemical
# Conditions: 10 nM PDK1, 100 nM peptide substrate, 100 nM PIFtide, 2.5 uM ATP, 1.5 hours
row,SMILES,IC50
1,"O=C(Nc1cc2[nH]ncc2cc1-c1cccc(CN2CCCCC2)c1)c1csc(-c2cc(C(F)(F)F)n[nH]2)n1 [Compound 3-5, N-(5-(3-(piperidin-1-ylmethyl)phenyl)-1H-indazol-6-yl)-2-(3-(trifluoromethyl)-1H-pyrazol-5-yl)thiazole-4-carboxamide hydrochloride]",170 nM
2,"NC1(c2ccc(-c3cc4cn[nH]c4cc3NC(=O)c3csc(-c4cc(C(F)(F)F)n[nH]4)n3)cc2)CC1 [Compound 1-18, N-(5-(4-(1-aminocyclopropyl)phenyl)-1H-indazol-6-yl)-2-(3-(trifluoromethyl)-1H-pyrazol-5-yl)thiazole-4-carboxamide]",1860 nM
3,"Cc1cc(CN)ccc1-c1cc2cn[nH]c2cc1NC(=O)c1csc(-c2cc(C(F)(F)F)n[nH]2)n1 [Compound 4-6, N-(5-(4-(aminomethyl)-2-methylphenyl)-1H-indazol-6-yl)-2-(3-(trifluoromethyl)-1H-pyrazol-5-yl)thiazole-4-carboxamide]",108 nM
4,"O=C(Nc1cc2[nH]ncc2cc1-c1cccc(CN2CCCC2)c1)c1csc(-c2cc(C(F)(F)F)n[nH]2)n1 [Compound 1-11, N-(5-(3-(pyrrolidin-1-ylmethyl)phenyl)-1H-indazol-6-yl)-2-(3-(trifluoromethyl)-1H-pyrazol-5-yl)thiazole-4-carboxamide]",33 nM
5,"Cc1cc(-c2nc(C(=O)Nc3cc4[nH]ncc4cc3-c3ccc4c(c3)CNC4)cs2)[nH]n1 [Compound 5-7, N-(5-(isoindolin-5-yl)-1H-indazol-6-yl)-2-(3-methyl-1H-pyrazol-5-yl)thiazole-4-carboxamide]",85 nM
